Assay [1] concerns the target Cathepsin B (Homo sapiens) (UniProt P07858). Description: Inhibition of cathepsin B (unknown origin) at 6.3 uM after 20 mins by fluorometric analysis.
Assay [2] addresses T1, Ubiquitin carboxyl-terminal hydrolase 4 (Homo sapiens, UniProt Q13107).
T1 sequence (Q13107 whole entry): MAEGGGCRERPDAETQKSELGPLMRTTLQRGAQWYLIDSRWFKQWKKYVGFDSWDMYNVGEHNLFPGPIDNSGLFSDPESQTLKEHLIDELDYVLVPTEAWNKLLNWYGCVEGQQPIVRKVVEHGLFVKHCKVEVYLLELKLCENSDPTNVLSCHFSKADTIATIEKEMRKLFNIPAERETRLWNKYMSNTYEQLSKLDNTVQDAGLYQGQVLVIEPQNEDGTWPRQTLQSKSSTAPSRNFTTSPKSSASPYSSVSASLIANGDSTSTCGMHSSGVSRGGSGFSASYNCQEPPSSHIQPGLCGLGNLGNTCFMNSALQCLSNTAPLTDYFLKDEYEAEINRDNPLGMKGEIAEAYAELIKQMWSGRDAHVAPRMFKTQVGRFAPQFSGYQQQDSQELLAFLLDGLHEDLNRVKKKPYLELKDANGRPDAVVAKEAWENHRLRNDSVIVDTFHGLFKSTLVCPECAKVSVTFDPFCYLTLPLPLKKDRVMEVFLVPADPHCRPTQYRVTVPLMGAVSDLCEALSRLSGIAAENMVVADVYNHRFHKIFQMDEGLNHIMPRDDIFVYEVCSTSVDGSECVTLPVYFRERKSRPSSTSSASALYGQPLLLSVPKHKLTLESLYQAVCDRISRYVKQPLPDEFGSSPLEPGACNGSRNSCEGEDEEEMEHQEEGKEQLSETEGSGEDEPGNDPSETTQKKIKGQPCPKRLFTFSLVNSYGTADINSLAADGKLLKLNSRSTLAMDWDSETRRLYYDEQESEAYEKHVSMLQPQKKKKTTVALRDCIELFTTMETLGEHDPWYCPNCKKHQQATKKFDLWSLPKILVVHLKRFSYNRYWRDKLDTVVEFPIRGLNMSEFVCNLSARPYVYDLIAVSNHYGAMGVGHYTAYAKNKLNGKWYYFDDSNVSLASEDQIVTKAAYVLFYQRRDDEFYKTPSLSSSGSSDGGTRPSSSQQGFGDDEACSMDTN
Briefly: Inhibition of human USP4 using Ub-AMC as substrate after 60 mins by fluorometric analysis.

Assay [3] concerns T2, Ubiquitin carboxyl-terminal hydrolase 5 (Homo sapiens), P45974 [H818A].
T2 sequence (whole entry): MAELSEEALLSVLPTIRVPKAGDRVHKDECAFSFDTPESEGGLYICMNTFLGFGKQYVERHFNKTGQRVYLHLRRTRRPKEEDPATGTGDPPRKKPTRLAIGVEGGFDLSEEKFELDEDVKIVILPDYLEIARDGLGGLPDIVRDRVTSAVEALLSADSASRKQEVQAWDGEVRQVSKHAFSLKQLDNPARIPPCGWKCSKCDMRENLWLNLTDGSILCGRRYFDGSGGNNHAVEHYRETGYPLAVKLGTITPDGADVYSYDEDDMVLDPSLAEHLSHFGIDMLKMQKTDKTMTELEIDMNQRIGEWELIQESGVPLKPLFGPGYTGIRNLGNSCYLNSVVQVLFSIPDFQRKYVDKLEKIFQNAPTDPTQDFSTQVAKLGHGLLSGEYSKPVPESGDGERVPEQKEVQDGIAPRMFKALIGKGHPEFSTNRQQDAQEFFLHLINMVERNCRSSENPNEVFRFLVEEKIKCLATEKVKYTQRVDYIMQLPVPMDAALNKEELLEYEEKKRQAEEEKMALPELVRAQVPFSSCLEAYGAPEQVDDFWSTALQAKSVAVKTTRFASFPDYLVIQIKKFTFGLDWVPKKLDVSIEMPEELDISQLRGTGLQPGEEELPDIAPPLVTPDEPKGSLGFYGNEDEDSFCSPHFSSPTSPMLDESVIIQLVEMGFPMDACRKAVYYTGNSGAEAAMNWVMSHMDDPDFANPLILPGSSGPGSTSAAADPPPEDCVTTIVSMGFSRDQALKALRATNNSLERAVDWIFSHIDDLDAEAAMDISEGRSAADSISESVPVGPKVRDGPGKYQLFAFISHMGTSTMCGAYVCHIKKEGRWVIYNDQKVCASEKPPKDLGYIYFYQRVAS
Briefly: Competitive binding affinity to human USP5 H818A mutant by SDS-PAGE analysis in presence of biotin-DMT.

The target in assay [4] is T3, Ubiquitin carboxyl-terminal hydrolase 2 (Homo sapiens) (UniProt O75604).
T3 sequence (whole entry): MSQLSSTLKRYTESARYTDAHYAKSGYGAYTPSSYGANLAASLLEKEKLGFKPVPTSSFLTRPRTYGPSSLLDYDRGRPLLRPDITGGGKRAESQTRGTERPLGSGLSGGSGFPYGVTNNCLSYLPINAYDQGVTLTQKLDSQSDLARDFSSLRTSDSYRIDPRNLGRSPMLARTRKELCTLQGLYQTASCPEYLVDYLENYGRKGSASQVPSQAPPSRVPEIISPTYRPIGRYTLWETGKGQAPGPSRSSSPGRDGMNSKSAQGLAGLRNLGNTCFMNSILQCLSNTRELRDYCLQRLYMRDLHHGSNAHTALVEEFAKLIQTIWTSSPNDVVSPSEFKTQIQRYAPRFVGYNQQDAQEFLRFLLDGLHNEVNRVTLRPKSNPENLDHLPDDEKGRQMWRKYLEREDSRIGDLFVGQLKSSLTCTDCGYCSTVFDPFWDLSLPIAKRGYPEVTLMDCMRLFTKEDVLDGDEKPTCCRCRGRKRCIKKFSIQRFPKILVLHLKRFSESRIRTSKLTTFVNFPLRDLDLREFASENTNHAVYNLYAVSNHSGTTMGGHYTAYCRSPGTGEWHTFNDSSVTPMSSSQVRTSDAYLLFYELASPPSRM
Briefly: Inhibition of human USP2 using Ub-AMC as substrate at 1 to 30 uM after 60 mins by fluorometric analysis.

Active and inactive are the calls of the source. The calls are words filed in the database; no cut-off is given here.

In the case of `O=C(Cc1ccccc1)Oc1c(OC(=O)Cc2ccccc2)c(-c2ccc(O)cc2)c(O)c(O)c1-c1ccc(O)cc1` [VIALININ A], the inhibition entry in assay [1] and in assay [4] was “inactive” in each case. Also, in assay [2], inhibition was half-maximal at 1.5 µM (IC50). The outcome in assay [3] was inactive.

The values above are taken from ChEMBL document CHEMBL2406999, “Vialinin A is a ubiquitin-specific peptidase inhibitor” (Bioorg Med Chem Lett, 2013).
